The record followed here is ChEMBL document CHEMBL5442379, “ASAP - SARS-CoV-2 nsp3 macrodomain single point” (2024).

SMILES strings stand for the structures.

The target of this assay is Replicase polyprotein 1ab (Severe acute respiratory syndrome coronavirus 2) (UniProt P0DTD1).

Description: Functional biochemical assay to identify treatments for viral infectious disease that targets SARS-COV-2 nsp3 macrodomain, whereby the mechanism of action displaces an ADP-Ribose modified peptide from the binding site. Utilizing a time-resolved fluorescence method to measure binding by reading the emitted fluorescence intensity in two wavelengths.

For `Cc1ccc(-c2n[nH]cc2CNc2cnc3[nH]ncc3c2)o1`, the inhibition (Concentration 50.0 uM, Number of replicates 2.0, Standard deviation 33.024 %) was 7.23%.

As to `Oc1ccccc1CNc1ncnc2cccnc12`, the inhibition is, setting by setting: (Concentration 49.75 uM, Number of replicates 2.0, Standard deviation 0.51 %) -1.84%; (Concentration 99.5 uM, Number of replicates 2.0, Standard deviation 1.128 %) -0.535%. Regarding `O=C(c1ccnc(S)c1)N1CCC(c2ccn3ncc(C(=O)N4CCCCC4)c3c2)CC1`, the inhibition is, setting by setting: (Concentration 49.75 uM, Number of replicates 2.0, Standard deviation 0.749 %) 20.2%; (Concentration 99.5 uM, Number of replicates 2.0, Standard deviation 3.677 %) 35.5%. With `CC(C)[C@@H](Nc1ncnc2n[nH]cc12)c1cnn(C)c1`, the inhibition (Concentration 50.0 uM, Number of replicates 2.0, Standard deviation 1.634 %) amounted to 63.5%.

Consider `Cc1cc(NCc2cnc3c(c2)NC(=O)CO3)cnc1C`, for which the inhibition (Concentration 50.0 uM, Number of replicates 2.0, Standard deviation 8.489 %) came to 4.53%. As to `Cc1cccc2oc(CCNc3ncnc4[nH]ccc34)nc12`, for the setting “Concentration 50.0 uM, Number of replicates 2.0, Standard deviation 6.123 %”, the inhibition was -3.26%. On to `COc1cccc(NC(=O)c2ccc(NC(=O)Nc3ccccc3)cc2)n1`, for which the inhibition (Concentration 49.75 uM, Number of replicates 2.0, Standard deviation 3.541 %) came to 4.65% and the inhibition (Concentration 99.5 uM, Number of replicates 2.0, Standard deviation 3.473 %) was 5.37%. With `O=C(CCN(Cc1cccc(Cl)c1)C(=O)c1ccccc1F)N1CCNCC1`, the inhibition was -0.625% (Concentration 49.75 uM, Number of replicates 2.0, Standard deviation 0.399 %) and 0.395% (Concentration 99.5 uM, Number of replicates 2.0, Standard deviation 0.282 %).

Turning to `O=C(Nc1ccccc1)Nc1ccc(C(=O)Nc2nnc(C(F)(F)F)[nH]2)cc1`, the inhibition was -3.2% (Concentration 49.75 uM, Number of replicates 2.0, Standard deviation 1.534 %) and -1.46% (Concentration 99.5 uM, Number of replicates 2.0, Standard deviation 0.592 %).

Consider `O=C(c1cn2ncccc2n1)N1CCC(c2ccn3ncc(C(=O)N4CCCCC4)c3c2)CC1`, for which the inhibition was found to be 30.7% (Concentration 49.75 uM, Number of replicates 2.0, Standard deviation 0.525 %) and 53.8% (Concentration 99.5 uM, Number of replicates 2.0, Standard deviation 6.296 %). With `CCN(Cc1cccnc1)C(=O)c1ccc(NC(=O)Nc2ccccc2)cc1`, the inhibition (Concentration 49.75 uM, Number of replicates 2.0, Standard deviation 4.414 %) was 3.63% and the inhibition (Concentration 99.5 uM, Number of replicates 2.0, Standard deviation 0.745 %) is -7.09%. As for `CN(c1ncnc2[nH]ccc12)[C@H]1CCN(S(C)(=O)=O)C1`, the inhibition (Concentration 50.0 uM, Number of replicates 2.0, Standard deviation 5.861 %) was -0.371%. Turning to `Cc1nc(NC(=O)c2ccnn2C(C)C)c2cc[nH]c2n1`, the inhibition (Concentration 50.0 uM, Number of replicates 2.0, Standard deviation 4.637 %) was -2.64% and the inhibition (Concentration 100.0 uM, Number of replicates 2.0, Standard deviation 4.768 %) was -4.35%.

As to `COc1cccc(Cl)c1CNc1ncnc2[nH]ncc12`, for the setting “Concentration 50.0 uM, Number of replicates 2.0, Standard deviation 0.519 %”, the inhibition was -1.83%. As to `COc1ccccc1CN(C[C@@H]1CCCO1)c1ncnc2[nH]ccc12`, the inhibition (Concentration 50.0 uM, Number of replicates 2.0, Standard deviation 1.448 %) amounted to 4.74%. In the case of `NS(=O)(=O)c1ccccc1CNc1ncnc2[nH]ccc12`, the inhibition (Concentration 50.0 uM, Number of replicates 2.0, Standard deviation 10.219 %) turned out to be 3.66%. For the compound `CC(C)c1c[nH]nc1NC(=O)c1ccc(NC(=O)Nc2ccccc2)cc1`, the inhibition by setting is: (Concentration 49.75 uM, Number of replicates 2.0, Standard deviation 3.059 %) 6.99%; (Concentration 99.5 uM, Number of replicates 2.0, Standard deviation 3.555 %) 8.5%. `Fc1ccc(Oc2cc(CNc3ncnc4nc[nH]c34)ccn2)cc1`: under “Concentration 50.0 uM, Number of replicates 2.0, Standard deviation 7.991 %”, the inhibition is 2.01%. On to `COCc1cc(CNc2cc3c(O)ncnc3cn2)no1`, for which the inhibition (Concentration 50.0 uM, Number of replicates 2.0, Standard deviation 0.223 %) was 3.31%. In the case of `O=C(Nc1cnc2[nH]ncc2c1)C1CCN(c2ccc3nncn3n2)CC1`, the inhibition (Concentration 50.0 uM, Number of replicates 2.0, Standard deviation 15.88 %) is 17%. Turning to `COc1cccc2cc(CNc3cnc4[nH]ncc4c3)oc12`, the inhibition (Concentration 50.0 uM, Number of replicates 2.0, Standard deviation 5.215 %) is -4.29%. `Cc1cc(NCc2csc(C)n2)ncn1`: where the note is “Concentration 50.0 uM, Number of replicates 2.0, Standard deviation 0.576 %”, the inhibition was -4.64%.

As for `COc1cc(CC(=O)Nc2cc3c(=O)nc[nH]c3cn2)on1`, the inhibition (Concentration 49.75 uM, Number of replicates 2.0, Standard deviation 0.449 %) was -4.69% and the inhibition (Concentration 99.5 uM, Number of replicates 2.0, Standard deviation 2.956 %) is -3.48%. Turning to `CC(C)[C@@H](Nc1ncnc2[nH]ccc12)C(N)=O`, the inhibition worked out at 64.4% (Concentration 49.75 uM, Number of replicates 2.0, Standard deviation 3.584 %) and 77.7% (Concentration 99.5 uM, Number of replicates 2.0, Standard deviation 5.819 %). As to `Cn1ncnc1C(=O)N1CCC(c2ccn3ncc(C(=O)N4CCCCC4)c3c2)CC1`, the inhibition came out at 2.38% (Concentration 49.75 uM, Number of replicates 2.0, Standard deviation 0.221 %) and 20.4% (Concentration 99.5 uM, Number of replicates 2.0, Standard deviation 2.086 %).

In the case of `O=C(NCc1ccc(Cl)cn1)c1ncnc2[nH]ccc12`, the inhibition (Concentration 50.0 uM, Number of replicates 2.0, Standard deviation 1.293 %) was -4.96% and the inhibition (Concentration 100.0 uM, Number of replicates 2.0, Standard deviation 0.093 %) was -2.57%. Take `C=CCn1c(Cc2ccccc2)nnc1Sc1ncnc2[nH]ccc12`: the inhibition (Concentration 50.0 uM, Number of replicates 2.0, Standard deviation 4.634 %) was -7.71%. As to `CCCNC(=O)[C@H]1CCCN(c2ncnc3[nH]ccc23)C1`, for the setting “Concentration 50.0 uM, Number of replicates 2.0, Standard deviation 0.927 %”, the inhibition is -4.36%. Regarding `Cn1cc([C@@H](Nc2ncnc3[nH]ccc23)C2CCC2)cn1`, the inhibition came out at 78.1% (Concentration 49.75 uM, Number of replicates 2.0, Standard deviation 3.794 %) and 91% (Concentration 99.5 uM, Number of replicates 2.0, Standard deviation 1.201 %).

Take `CO[C@@H]1CCCN(C(=O)c2cnn3ccc(C4CCN(C(=O)c5ccccc5)CC4)cc23)C1`: the inhibition runs as follows: (Concentration 49.75 uM, Number of replicates 2.0, Standard deviation 1.69 %) 22.6%; (Concentration 99.5 uM, Number of replicates 2.0, Standard deviation 3.272 %) 39.8%. As for `Cc1ncc(NCc2ncn(C)c2Cl)cc1C(N)=O`, the inhibition (Concentration 50.0 uM, Number of replicates 2.0, Standard deviation 1.923 %) was determined as 2.41%. `Cc1nc(C)c(CC(=O)Nc2cnc3[nH]ncc3c2)c(=O)[nH]1`: the inhibition (Concentration 50.0 uM, Number of replicates 2.0, Standard deviation 0.296 %) stood at 4.83%.

On to `O=C1C[C@@]2(CCCN(c3ncnc4[nH]ccc34)C2)CN1`, for which, for the setting “Concentration 50.0 uM, Number of replicates 2.0, Standard deviation 0.483 %”, the inhibition is -2.45%.

The inhibition is the drop in the measured response relative to a control, in per cent.
